Data published in patent US20240336642A1 (The General Hospital Corporation, priority 2021, published 2024).
Counter-ions that a name gives are not always drawn.

Tests used:
h12/15-LOX = h12/15-LOX (Homo sapiens (Human), UniProt P16050); assay: 12/15-LOX enzyme inhibition IC50 assay (Examples 1 and 2); format: biochemical; details: for Emax / Max % inhibition: h12/15-LOX; for Emax: read-out: Max % inhibition
Procedure: Enzyme was then added to the cuvettes. […] The % inhibition for each test compound concentration were calculated as follows: […]

[1] = Aqueous solubility of exemplified compounds (Example 3); format: physicochemical; details: aqueous solubility
[2] = Metabolic stability of exemplified compounds (Example 4); format: in vitro ADME

h12/15-LOX, sequence (P16050 whole entry): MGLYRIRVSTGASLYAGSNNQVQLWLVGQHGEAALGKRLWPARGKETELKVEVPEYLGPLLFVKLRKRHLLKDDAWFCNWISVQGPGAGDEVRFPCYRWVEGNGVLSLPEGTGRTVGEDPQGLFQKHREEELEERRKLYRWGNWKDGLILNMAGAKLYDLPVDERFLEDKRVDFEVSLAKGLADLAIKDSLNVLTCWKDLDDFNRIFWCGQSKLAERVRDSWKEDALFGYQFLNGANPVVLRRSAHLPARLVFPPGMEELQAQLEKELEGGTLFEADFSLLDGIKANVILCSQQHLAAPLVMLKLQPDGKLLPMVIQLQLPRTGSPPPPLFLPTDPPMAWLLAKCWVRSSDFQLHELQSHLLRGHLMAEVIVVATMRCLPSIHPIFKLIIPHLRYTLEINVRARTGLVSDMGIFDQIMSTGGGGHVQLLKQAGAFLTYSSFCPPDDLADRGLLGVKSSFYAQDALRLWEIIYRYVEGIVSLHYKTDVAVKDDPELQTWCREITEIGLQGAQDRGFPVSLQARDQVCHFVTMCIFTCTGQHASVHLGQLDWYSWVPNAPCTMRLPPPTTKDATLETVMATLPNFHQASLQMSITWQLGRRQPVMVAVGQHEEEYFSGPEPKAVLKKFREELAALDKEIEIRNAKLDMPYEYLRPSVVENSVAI

Row | Structure (SMILES) | IC50 (h12/15-LOX) [nM] | Emax (h12/15-LOX) [%] | Sol [1] | Extr (EH) ([2]; Human liver microsomes) | microsomal CLint ([2]; Human liver microsomes) [µL/min/mg] | Extr (EH) ([2]; Mouse liver microsomes) | microsomal CLint ([2]; Mouse liver microsomes) [µL/min/mg] | Extr (EH) ([2]; Rat liver microsomes) | microsomal CLint ([2]; Rat liver microsomes) [µL/min/mg] | Max % inhibition (h12/15-LOX) [%] | CLint ([2]; Human liver microsomes) | CLint ([2]; Mouse liver microsomes) | CLint ([2]; Rat liver microsomes)
1 | COCC/C=C/CNc1oc(-c2cc(Cl)cc(Cl)c2Cl)nc1C#N [Compound 46, (E)-5-((5-Methoxypent-2-en-1-yl)amino)-2-(2,3,5-trichlorophenyl)oxazole-4-carbonitrile] | 210 | 95 | + (“+” < 10 μM) | ** (“**” 50-100%) | 20 to 100 | ** (“**” 50-100%) | 100 to 200 | ** (“**” 50-100%) | 20 to 100 |  |  |  | 
2 | COC/C=C/CNc1oc(-c2cc(Cl)cc(Cl)c2Cl)nc1C#N [Compound 45, (E)-5-((4-Methoxybut-2-en-1-yl)amino)-2-(2,3,5-trichlorophenyl)oxazole-4-carbonitrile] | 190 | 98 | + (“+” < 10 μM) | ** (“**” 50-100%) | 20 to 100 | ** (“**” 50-100%) | 100 to 200 | ** (“**” 50-100%) | 20 to 100 |  |  |  | 
3 | COCCOCCCCNc1oc(-c2cc(Cl)cc(Cl)c2Cl)nc1C#N [Compound 48, 5-((4-(2-Methoxyethoxy)butyl)amino)-2-(2,3,5-trichlorophenyl)oxazole-4-carbonitrile] | 620 |  | + (“+” < 10 μM) | ** (“**” 50-100%) |  | ** (“**” 50-100%) |  | ** (“**” 50-100%) |  | 100 | ++ (“++” 20-100 μL/min/mg) | +++ (“+++” 100-200 μL/min/mg) | ++ (“++” 20-100 μL/min/mg)
4 | N#Cc1nc(-c2cc(Cl)cc(Cl)c2Cl)oc1NCCCCCO [Compound 22, 5-((5-Hydroxypentyl)amino)-2-(2,3,5-trichlorophenyl)oxazole-4-carbonitrile] | 510 | 82 | + (“+” < 10 μM) | ** (“**” 50-100%) | 20 to 100 | * (“*” <50%) | < 20 | * (“*” <50%) | 20 to 100 |  |  |  | 
5 | COCCNc1oc(-c2cc(Cl)cc(Cl)c2Cl)nc1C#N [Compound 39, 5-((2-Methoxyethyl)amino)-2-(2,3,5-trichlorophenyl)oxazole-4-carbonitrile] | 370 | 100 | + (“+” < 10 μM) | ** (“**” 50-100%) | 20 to 100 | ** (“**” 50-100%) | 100 to 200 | ** (“**” 50-100%) | 20 to 100 |  |  |  | 
6 | N#Cc1nc(-c2cc(Cl)cc(Cl)c2Cl)oc1NC/C=C/COCc1ccccc1 [Compound 47, (E)-5-((4-(Benzyloxy)but-2-en-1-yl)amino)-2-(2,3,5-trichlorophenyl)oxazole-4-carbonitrile] | 230 | 98 | + (“+” < 10 μM) | ** (“**” 50-100%) | 100 to 200 | ** (“**” 50-100%) | 100 to 200 | ** (“**” 50-100%) | 100 to 200 |  |  |  | 
7 | N#Cc1nc(-c2cc(Cl)cc(Cl)c2Cl)oc1NCCCCO [Compound 17, 5-((4-Hydroxybutyl)amino)-2-(2,3,5-trichlorophenyl)oxazole-4-carbonitrile] | 1900 | 100 | ++ (“++” 10-20 μM) | * (“*” <50%) | < 20 | * (“*” <50%) | < 20 | * (“*” <50%) | < 20 |  |  |  | 
8 | N#Cc1nc(-c2cc(Cl)cc(Cl)c2Cl)oc1NCC#CCOCc1ccccc1 [Compound 43, 5-((4-(Benzyloxy)but-2-yn-1-yl)amino)-2-(2,3,5-trichlorophenyl)oxazole-4-carbonitrile] | 230 | 93 | + (“+” < 10 μM) | ** (“**” 50-100%) | 100 to 200 | ** (“**” 50-100%) | 20 to 100 | ** (“**” 50-100%) | 20 to 100 |  |  |  | 
9 | N#Cc1nc(-c2cc(Cl)cc(Cl)c2Cl)oc1NCCOCCO [Compound 28, 5-((2-(2-Hydroxyethoxy)ethyl)amino)-2-(2,3,5-trichlorophenyl)oxazole-4-carbonitrile] | 1500 | 87 | +++ (“+++” 20-50 μM) | ** (“**” 50-100%) | 20 to 100 | * (“*” <50%) | 20 to 100 | * (“*” <50%) | < 20 |  |  |  | 
10 | COCCOCCOCCNc1oc(-c2cc(Cl)cc(Cl)c2Cl)nc1C#N [Compound 50, 5-((2-(2-(2-Methoxyethoxy)ethoxy)ethyl)amino)-2-(2,3,5-trichlorophenyl)oxazole-4-carbonitrile] | 890 |  | +++ (“+++” 20-50 μM) | ** (“**” 50-100%) |  | ** (“**” 50-100%) |  | ** (“**” 50-100%) |  | 99 | ++ (“++” 20-100 μL/min/mg) | ++ (“++” 20-100 μL/min/mg) | ++ (“++” 20-100 μL/min/mg)
11 | CC(C)OCCOCCNc1oc(-c2cc(Cl)cc(Cl)c2Cl)nc1C#N [Compound 49, 5-((2-(2-Isopropoxyethoxy)ethyl)amino)-2-(2,3,5-trichlorophenyl)oxazole-4-carbonitrile] | 660 | 95 | + (“+” < 10 μM) | * (“*” <50%) | < 20 | ** (“**” 50-100%) | 20 to 100 | ** (“**” 50-100%) | 20 to 100 |  |  |  | 
12 | N#Cc1nc(-c2cc(Cl)cc(Cl)c2Cl)oc1NCCOCCOc1ccncc1 [Compound 97, 5-((2-(2-(Pyridin-4-yloxy)ethoxy)ethyl)amino)-2-(2,3,5-trichlorophenyl)oxazole-4-carbonitrile] | 110 | 68 |  |  |  |  |  |  |  |  |  |  | 
13 | CN(C)CCCCC(=O)N(C)c1oc(-c2cc(Cl)cc(Cl)c2Cl)nc1C#N [Compound 62, N-(4-Cyano-2-(2,3,5-trichlorophenyl)oxazol-5-yl)-5-(dimethylamino)-N-methylpentanamide hydrochloride] | 8300 | 100 |  |  |  |  |  |  |  |  |  |  | 
14 | CN(C)CCCC(=O)Nc1oc(-c2cc(Cl)cc(Cl)c2Cl)nc1C#N [Compound 65, N-(4-Cyano-2-(2,3,5-trichlorophenyl)oxazol-5-yl)-4-(dimethylamino)butanamide hydrochloride] | > 20000 |  |  |  |  |  |  |  |  |  |  |  | 
15 | CNc1oc(-c2cc(Cl)cc(Cl)c2OC(F)F)nc1C#N [Compound 4] |  | 67 |  |  |  |  |  |  |  |  |  |  | 
16 | COCCOCCNc1oc(-c2cc(Cl)cc(Cl)c2F)nc1C#N [Compound 35, 2-(3,5-Dichloro-2-fluorophenyl)-5-((2-(2-methoxyethoxy)ethyl)amino)oxazole-4-carbonitrile] | 3000 | 100 |  |  |  |  |  |  |  |  |  |  | 
17 | COCCOc1ccc(COCC#CCNc2oc(-c3cc(Cl)cc(Cl)c3Cl)nc2C#N)cc1 [Compound 85] |  | 92 |  |  |  |  |  |  |  |  |  |  | 
